Biological target: T1, human PAR-2 (hPAR-2) receptor (Homo sapiens, UniProt P55085)
T1 construct: expressed in HEK-293 cells in an endogenous manner; endogenous in cells; host or cells: HEK-293
T1 sequence (P55085 26-397): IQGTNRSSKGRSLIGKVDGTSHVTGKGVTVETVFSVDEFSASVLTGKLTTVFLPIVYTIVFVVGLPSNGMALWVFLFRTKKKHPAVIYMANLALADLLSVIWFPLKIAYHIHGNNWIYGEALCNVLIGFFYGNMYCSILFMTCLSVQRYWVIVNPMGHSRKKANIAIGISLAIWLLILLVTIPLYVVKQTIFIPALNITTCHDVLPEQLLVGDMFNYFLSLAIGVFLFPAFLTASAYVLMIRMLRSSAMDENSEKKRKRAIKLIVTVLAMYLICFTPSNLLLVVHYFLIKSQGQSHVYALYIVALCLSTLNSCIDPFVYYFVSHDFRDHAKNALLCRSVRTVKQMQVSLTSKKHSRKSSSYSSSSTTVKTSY
Experiment: In vitro human PAR-2 functional antagonist activity using calcium assays
Type: cell-based
Settings: hPAR-2 endogenously expressed in HEK-293 cells; stimulated by 2-Furoyl-LIGRLO-NH2 peptide; Fluo4AM intracellular calcium, FLIPR Tetra
Procedure, shortened: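 Antagonism was measured as reduced calcium response to 2-Furoyl-LIGRLO-NH2 (dosed at its 80%-of-maximum concentration), recorded for 5 min. This followed a 10 min compound pre-incubation on Fluo4AM-loaded HEK-293 cells expressing native hPAR-2. Signals were normalised to buffer and agonist-alone controls.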

Structure (SMILES) | IC50 [µM]
COc1cc2c(nc1C(=O)N1CCN(c3ccc(CC(=O)O)cn3)CC1(C)C)C(C)(C)CN2c1ccc(Cl)c(F)c1 [Example 255, 2-(6-(4-(1-(4-chloro-3-fluorophenyl)-6-methoxy-3,3-dimethyl-2,3-dihydro-1H-pyrrolo[3,2-b]pyridine-5-carbonyl)-3,3-dimethylpiperazin-1-yl)pyridin-3-yl)acetic acid] | > 10
CC1(C)CN(c2ccc(Cl)c(F)c2)c2cc(O)c(C(=O)N3CCN(c4ccc(CC(=O)O)cn4)CC3(C)C)nc21 [Example 258, 2-(6-(4-(1-(4-chloro-3-fluorophenyl)-6-hydroxy-3,3-dimethyl-2,3-dihydro-1H-pyrrolo[3,2-b]pyridine-5-carbonyl)-3,3-dimethylpiperazin-1-yl)pyridin-3-yl)acetic acid] | 0.5 to 10
CCCCCCCCCCCCCCCC(=O)N(C)CCN(C)C(=O)CCOCCOCCOCCNC(=O)CCOCCOCCOCCNC(=O)CCCCCCC(=O)N1CCN(C(=O)c2cnc3c(n2)C2(CN3c3ccc(Cl)c(F)c3)CC(C)(C)C2)C(C)(C)C1 [Example 261, N-(37-(4-(5′-(4-chloro-3-fluorophenyl)-3,3-dimethyl-5′,6′-dihydrospiro[cyclobutane-1,7′-pyrrolo[2,3-b]pyrazine]-2′-carbonyl)-3,3-dimethylpiperazin-1-yl)-3-methyl-4,17,30,37-tetraoxo-7,10,13,20,23,26-hexaoxa-3,16,29-triazaheptatriacontyl)-N-methylpalmitamide] | 0.5 to 10
Cc1cc(N2CCN(C(=O)c3cnc4c(n3)C(C)(C)CN4c3ccc(Cl)c(F)c3)C(C)(C)C2)c(C(=O)O)c(C)n1 [Example 263, 4-(4-(5-(4-chloro-3-fluorophenyl)-7,7-dimethyl-6,7-dihydro-5H-pyrrolo[2,3-b]pyrazine-2-carbonyl)-3,3-dimethylpiperazin-1-yl)-2,6-dimethylnicotinic acid] | > 10
CC1(C)CN(c2ccc(Cl)c(F)c2)c2ccc(C(=O)N3CCN(c4ccc(CC(=O)O)cn4)CC3(C)C)nc2O1 [Example 265, 2-(6-(4-(1-(4-chloro-3-fluorophenyl)-3,3-dimethyl-2,3-dihydro-1H-pyrido[2,3-b][1,4]oxazine-6-carbonyl)-3,3-dimethylpiperazin-1-yl)pyridin-3-yl)acetic acid] | > 10
CC1(C)CC2(CN(c3ccc(Cl)c(F)c3)c3ncc(S(=O)(=O)N4CCC(N5CCNC5=O)CC4)nc32)C1 [Example 266, 1-(1-((5′-(4-chloro-3-fluorophenyl)-3,3-dimethyl-5′,6′-dihydrospiro[cyclobutane-1,7′-pyrrolo[2,3-b]pyrazin]-2′-yl)sulfonyl)piperidin-4-yl)imidazolidin-2-one] | > 10
CC1(C)CN(c2ccc(Cl)c(F)c2)c2ncc(C(=O)N3CCN(c4ccc(CC(=O)O)cn4)CC3(C)C)nc2O1 [Example 268, 2-(6-(4-(4-(4-chloro-3-fluorophenyl)-2,2-dimethyl-3,4-dihydro-2H-pyrazino[2,3-b][1,4]oxazine-7-carbonyl)-3,3-dimethylpiperazin-1-yl)266yridine-3-yl)acetic acid] | > 10
CC1(C)CN(c2ccc(Cl)c(F)c2)Cc2sc(C(=O)N3CCN(c4ccc(CC(=O)O)cn4)CC3(C)C)nc21 [Example 270, 2-(6-(4-(5-(4-chloro-3-fluorophenyl)-7,7-dimethyl-4,5,6,7-tetrahydrothiazolo[5,4-c]pyridine-2-carbonyl)-3,3-dimethylpiperazin-1-yl)pyridin-3-yl)acetic acid] | 0.5 to 10
CC1(C)CN(c2ccc(Cl)c(F)c2)Cc2cn(C(=O)N3CCN(c4ccc(CC(=O)O)cn4)CC3(C)C)nc21 [Example 273, 2-(6-(4-(5-(4-chloro-3-fluorophenyl)-7,7-dimethyl-4,5,6,7-tetrahydro-2H-pyrazolo[4,3-c]pyridine-2-carbonyl)-3,3-dimethylpiperazin-1-yl)pyridin-3-yl)acetic acid] | 0.5 to 10

The next lines start with the values.

IC50 [µM] | Structure (SMILES)
< 0.5 | Cc1cc(N2CCN(C(=O)c3cnc4c(n3)C(C)(C)CN4c3ccc(Cl)c(Cl)c3)C(C)(C)C2)nc(C)c1C(=O)O [Example 249, 6-(4-(5-(3,4-dichlorophenyl)-7,7-dimethyl-6,7-dihydro-5H-pyrrolo[2,3-b]pyrazine-2-carbonyl)-3,3-dimethylpiperazin-1-yl)-2,4-dimethylnicotinic acid]
< 0.5 | Cc1ccc(N2CC(C)(C)c3nc(C(=O)N4CCN(c5ccc(CC(=O)O)cn5)CC4(C)C)cnc32)cc1Cl [Example 251, 2-(6-(4-(5-(3-chloro-4-methylphenyl)-7,7-dimethyl-6,7-dihydro-5H-pyrrolo[2,3-b]pyrazine-2-carbonyl)-3,3-dimethylpiperazin-1-yl)pyridin-3-yl)acetic acid]
0.5 to 10 | COC1c2nc(C(=O)N3CCN(c4ccc(CC(=O)O)cn4)CC3(C)C)ccc2N(c2ccc(Cl)c(F)c2)CC1(C)C (stereo not shown) [Example 253, 2-(6-(4-(5-(4-chloro-3-fluorophenyl)-8-methoxy-7,7-dimethyl-5,6,7,8-tetrahydro-1,5-naphthyridine-2-carbonyl)-3,3-dimethylpiperazin-1-yl)pyridin-3-yl)acetic acid]
0.5 to 10 | CC(C)CN1CC(C)(c2ccc(Cl)c(F)c2)c2ccc(C(=O)N3CCN(c4ccc(CC(=O)O)cn4)CC3(C)C)nc21 (stereo not shown) [Example 257, 2-(6-(4-(3-(4-chloro-3-fluorophenyl)-1-isobutyl-3-methyl-2,3-dihydro-1H-pyrrolo[2,3-b]pyridine-6-carbonyl)-3,3-dimethylpiperazin-1-yl)pyridin-3-yl)acetic acid]
< 0.5 | COC(=O)CCCCCCC(=O)N1CCN(C(=O)c2cnc3c(n2)C2(CN3c3ccc(Cl)c(F)c3)CC(C)(C)C2)C(C)(C)C1 [Example 259, methyl 8-(4-(5′-(4-chloro-3-fluorophenyl)-3,3-dimethyl-5′,6′-dihydrospiro[cyclobutane-1,7′-pyrrolo[2,3-b]pyrazine]-2′-carbonyl)-3,3-dimethylpiperazin-1-yl)-8-oxooctanoate]
< 0.5 | CC1(C)CC2(CN(c3ccc(Cl)c(F)c3)c3ncc(C(=O)N4CCN(C(=O)CCCCCCC(=O)O)CC4(C)C)nc32)C1 [Example 260, 8-(4-(5′-(4-chloro-3-fluorophenyl)-3,3-dimethyl-5′,6′-dihydrospiro[cyclobutane-1,7′-pyrrolo[2,3-b]pyrazine]-2′-carbonyl)-3,3-dimethylpiperazin-1-yl)-8-oxooctanoic acid]
< 0.5 | Cc1cc(N2CCN(C(=O)c3ccc4c(n3)C(C)(C)CN4c3ccc(C(F)(F)F)c(F)c3)C(C)(C)C2)nc(C)c1C(=O)O [Example 275, 6-(4-(1-(3-fluoro-4-(trifluoromethyl)phenyl)-3,3-dimethyl-2,3-dihydro-1H-pyrrolo[3,2-b]pyridine-5-carbonyl)-3,3-dimethylpiperazin-1-yl)-2,4-dimethylnicotinic acid]
< 0.5 | Cc1cc(N2CCN(C(=O)c3cnc4c(n3)C(C)(C)CN4c3cc(F)c(F)c(F)c3)C(C)(C)C2)nc(C)c1C(=O)O [Example 277, 6-(4-(7,7-dimethyl-5-(3,4,5-trifluorophenyl)-6,7-dihydro-5H-pyrrolo[2,3-b]pyrazine-2-carbonyl)-3,3-dimethylpiperazin-1-yl)-2,4-dimethylnicotinic acid]
< 0.5 | Cc1cc(N2CCN(C(=O)c3ccc4c(n3)C(C)(C)CN4c3ccc(C4CC4)cc3)C(C)(C)C2)nc(C)c1C(=O)O [Example 279, 6-(4-(1-(4-cyclopropylphenyl)-3,3-dimethyl-2,3-dihydro-1H-pyrrolo[3,2-b]pyridine-5-carbonyl)-3,3-dimethylpiperazin-1-yl)-2,4-dimethylnicotinic acid]
< 0.5 | CC1(C)CC2(CN(c3ccc(F)c(F)c3)c3ncc(C(=O)N4CCNC(=O)C4(C)C)nc32)C1 [Example 282, 4-(5′-(3,4-difluorophenyl)-3,3-dimethyl-5′,6′-dihydrospiro[cyclobutane-1,7′-pyrrolo[2,3-b]pyrazine]-2′-carbonyl)-3,3-dimethylpiperazin-2-one]

Reference: patent US20250320224A1 (DOMAIN THERAPEUTICS, priority 2022, published 2025)
